Measured values from patent US6693081B2, “Bone stimulating factor” (Osteopharm Inc., priority 1995, dated 2004).
Entries after “also recorded” stand apart in the source; their conditions may differ.

Columns and labels:
male Sprague-Dawley rats [1] = assay: Bone mineral apposition rate in rats, second set of experiments (NAP-2V subsequences); type: in vivo, rat; conditions: for Group arithmetic mean of bone apposition rate: about 25 nmol injected in right thigh, male Sprague-Dawley rats, N=3-4, control 1.08
Experimental: In a second set of experiments, twenty-four male Sprague-Dawley rats (Charles River Laboratory) were divided into six groups of four. Each of the first group, the control group, was injected in the right thigh with 200 μl of 0.1% acetic acid solution. The rats of the other groups were each injected in the right thigh with about 200 μl of a 0.1% acetic acid solution containing about 25 nmol of a chemically synthesized polypeptide as follows:
Immediately after injection of the polypeptide (control) solution, each rat was injected in the right gluteus maximus with 200 μl of a 1 M tetracycline hydrochloride (Sigma Chemical) solution. This dosage of tetracycline is about 16 mg per kg of animal body weight.
About 48 hours later, each rat was injected in the left gluteus maximus with the same dosage of tetracycline. Twenty-four hours later, the rats were sacrificed by CO2 narcosis and the right femur taken for bone mineral apposition rate determination. One rat died during the course of the experiments.
Immediately after dissection, a bone sample was fixed in 10% formaldehyde solution at pH 7.4. Later the same day, a 1:1 H2O-acetone solution was exchanged for the formaldehyde solution. This was exchanged twice the following day with acetone. This was exchanged the following day by a 1:1 acetone-Spurr's medium solution, which was exchanged later the same day with Spurr's medium. The following day each sample was embedded in a fresh change of Spurr's medium and cured at 60° C. for 24 hours, followed by curing at 80° C. for 24 hours.
Each cured block was cut into 400 μm thick sections using a Leitz saw microtome equipped with a diamond charged blade. The relatively thick sections were ground down between two ground glass plates pre-roughened with carborundum powder to a final thickness of about 10 μm, water being used as the grinding lubricant. The thin sections were dried and mounted unstained in Permount (Fisher).
Measurements were made using a Leitz scanning light microscope photometer MPV-CD magnifying the sections 16×, as described in international patent application No. PCT/CA94/00144.

[2] = test system: female Sprague-Dawley rats; assay: Bone mineral apposition rate in rats, third set of experiments (protected polypeptides); type: in vivo, rat; conditions: 100 nmoles; for Group arithmetic mean of bone apposition rate: female Sprague-Dawley rats, N=3, control 1.256; for Bone stimulatory activity (in words): rats
Experimental: The polypeptide having the sequence identified as SEQ ID NO:12 has two sites susceptible to cleavage by the peptidase plasmin, between the lysine-threonine and the lysine-asparagine residues, respectively. In a third set of experiments, nine female Sprague-Dawley rats (average weight, about 300 gm) were divided into three groups of three. Each of the first group, the control group, was injected with 400 μl of buffer solution, 50 mM sodium acetate adjusted to pH 4.5 followed immediately by 200 μl of a 1M tetracycline hydrochloride solution. The rats of the second group were each injected with 400 μl of buffer containing 100 nmoles of a chemically synthesized polypeptide having the sequence identified as SEQ ID NO:17 followed immediately by 200 μl of a 1 M tetracycline hydrochloride solution. The rats of the third group were each injected with 400 μl of buffer containing 100 nmoles of a chemically synthesized polypeptide having the sequence identified as SEQ ID NO:18 followed immediately by 200 μl of a 1M tetracycline hydrochloride solution.
After about 48 hours, a second dose of tetracycline hydrochloride was administered to each rat. After about another 24 hours, rats were sacrificed by carbon dioxide narcosis.
The right femur of each animal was taken and treated, as described above, and measurements made as described above.

[3] = test system: female Sprague-Dawley rats; assay: Dose dependence of bone mineral apposition rate in rats, fourth set of experiments; type: in vivo, rat; conditions: N=4, control 1.320
Experimental: In a fourth set of experiments, dose dependence of the measured bone mineral apposition rate on the amount of polypeptide having SEQ ID NO:18 was evaluated. Twenty-eight female Sprague-Dawley rats (average weight, about 300 gm) were divided into seven groups of four. The rats were treated as described in the previous set of experiments except that the amount of test polypeptide varied as follows: 25, 50, 100, 200, 400 and 800 nmoles.

male Sprague-Dawley rats [4] = assay: Bone mineral apposition rate in rats, first experiments (NAP-2, NAP-2V); type: in vivo, rat; conditions: 25 nmol; for Bone stimulatory effect (in words): rats; for Group arithmetic mean of bone apposition rate: subcutaneous injection, male Sprague-Dawley rats, N=5, right femur lower metaphysis, control 0.99
Experimental: Experiments were conducted simultaneously on three groups of male Sprague-Dawley rats, there being five rats in each group. Each rat weighed between 250 and 350 g. Each rat of the first group was given, by subcutaneous injection into the left gluteus maximus region, 200 μl of a 1% aqueous acetic acid solution containing 25 nmol (about 191 μg) of NAP-2 (SEQ ID NO:1). Each rat of the second group was similarly given 200 μl of a 1% aqueous acetic acid solution containing 25 nmol (about 207 μg) of NAP-2V (SEQ ID NO:2). Each rat of the third group, the control group, was similarly given 200 μl of 1% acetic acid solution.
Immediately following administration of the test solution, 300 μl of an aqueous solution of tetracycline hydrochloride was administered intramuscularly into the right gluteus maximus, the concentration of tetracycline being sufficient to obtain a dosage of about 24 mg/kg of rat body weight. A second dose of tetracycline hydrochloride solution was administered about 48 hours after the first dose. The rats were sacrificed about 24 hours after administration of the second dose of tetracycline.
Sections of the lower metaphysis of the right femur were used for bone measuring the bone mineral apposition rate. Processing of the bone material for measurement has been described previously. See, for example, international patent application No. PCT/CA 94/00144 published under No. WO 94/20615 on Sep. 15, 1994.

Saos-2 = Saos-2 osteoblastic osteosarcoma cell line; U.S. Pat. No. 5,304,542; cited from earlier work
G-292 = G-292 osteoblastic osteosarcoma cell line; U.S. Pat. No. 5,304,542; cited from earlier work

## NAP-2V-(1-26) (DSDLYAELRCMCIKTTSGIHPKNIQS; OTHER INFORMATION: Description of Artificial Sequence: Chemically synthesized polypeptide) [SEQ ID NO: 11]
Male Sprague-Dawley rats [1]
  Group arithmetic mean of bone apposition rate: 1.47 μm per day
Male Sprague-Dawley rats [1]; about 25 nmol, rats
  Effect on observed bone (mineral) apposition rate (in words): stimulate bone growth; also recorded: increase the observed bone apposition rate

## NAP-2V-(10-26) (CMCIKTTSGIHPKNIQS; OTHER INFORMATION: Description of Artificial Sequence: Chemically synthesized polypeptide) [SEQ ID NO: 13, Cys Met Cys Ile Lys Thr Thr Ser Gly Ile His Pro Lys Asn Ile Gln Ser]
Male Sprague-Dawley rats [1]
  Group arithmetic mean of bone apposition rate: 1.18 μm per day
Male Sprague-Dawley rats [1]; about 25 nmol, rats
  Effect on observed bone (mineral) apposition rate (in words): small increase

## NAP-2V-(11-26) (MCIKTTSQIHPKNIQS; OTHER INFORMATION: Description of Artificial Sequence: Chemically synthesized polypeptide) [SEQ ID NO: 14, Met Cys Ile Lys Thr Thr Ser Gln Ile His Pro Lys Asn Ile Gln Ser]
Male Sprague-Dawley rats [1]
  Group arithmetic mean of bone apposition rate: 1.07 μm per day
Male Sprague-Dawley rats [1]; about 25 nmol, rats, listed as 14
  Effect on observed bone (mineral) apposition rate (in words): do not appear to enhance bone growth
Male Sprague-Dawley rats [1]; about 25 nmol, rats, listed as NAP-2V-(11-26)
  Effect on observed bone (mineral) apposition rate (in words): no effect

## NAP-2V-(12-26) (CIKTTSGIHPKNIQS; OTHER INFORMATION: Description of Artificial Sequence: Chemically synthesized polypeptide) [SEQ ID NO: 15, Cys Ile Lys Thr Thr Ser Gly Ile His Pro Lys Asn Ile Gln Ser]
Male Sprague-Dawley rats [1]
  Group arithmetic mean of bone apposition rate: 1.04 μm per day
Male Sprague-Dawley rats [1]; about 25 nmol, rats, listed as 15
  Effect on observed bone (mineral) apposition rate (in words): do not appear to enhance bone growth
Male Sprague-Dawley rats [1]; about 25 nmol, rats, listed as NAP-2V-(12-26)
  Effect on observed bone (mineral) apposition rate (in words): no effect

## NAP-2V-(13-26; gln^25→ glu^25) (IKTTSGIHPKNIES; OTHER INFORMATION: Description of Artificial Sequence: Chemically synthesized polypeptide) [SEQ ID NO: 12, Ile Lys Thr Thr Ser Gly Ile His Pro Lys Asn Ile Glu Ser]
Male Sprague-Dawley rats [1]
  Group arithmetic mean of bone apposition rate: 1.70 μm per day
Male Sprague-Dawley rats [1]; about 25 nmol, rats; gln^25→glu^25)
  Effect on observed bone (mineral) apposition rate (in words): stimulate bone growth; also recorded: greater activity; also recorded: increase the observed bone apposition rate

## SEQ ID NO: 17: Protected NAP-2V-(13-26; gln^25→glu^25): Xaa Lys Thr Thr Ser Gly Ile His Pro Lys Asn Ile Glu Xaa; N-acetyl isoleucine, serinamide (Ac-IKTTSGIHPKNIES-NH2; also: protecting groups)
[2]
  Group arithmetic mean of bone apposition rate: 1.859 μm/d
  Bone stimulatory activity (in words): bond stimulatory activity

## SEQ ID NO: 18: Protected NAP-2V-(15-22): Xaa Thr Ser Gly Ile His Pro Xaa; Xaa1 N-acetyl threonine, Xaa8 lysinamide (Ac-TTSGIHPK-NH2; also: protecting groups)
[2]
  Group arithmetic mean of bone apposition rate: 2.406 μm/d
  Bone stimulatory activity (in words): greater bone stimulatory activity; also recorded: bond stimulatory activity
[3]; 25 nmol
  Bone apposition rate, mean: 1.686 μm/day
[3]; 50 nmol
  Bone apposition rate, mean: 1.753 μm/day
[3]; 100 nmol
  Bone apposition rate, mean: 1.907 μm/day
[3]; 200 nmol
  Bone apposition rate, mean: 2.209 μm/day
[3]; 400 nmol
  Bone apposition rate, mean: 2.123 μm/day
[3]; 800 nmol
  Bone apposition rate, mean: 2.139 μm/day

B1: NAP-2V (peptide)
chain: DSDLYAELRCMCIKTTSGIHPKNIQSLEVIGKGTHCNQVEVIATLKDGRKICLDPDAPRIKKIVQKKLAGDESAD
modifications: OTHER INFORMATION: Description of Artificial Sequence: Chemically synthesized polypeptide
notes: variant of NAP-2, 75 amino acids, chemically synthesized polypeptide
Male Sprague-Dawley rats [4]
  Bone stimulatory effect (in words): bone stimulatory effects
  Group arithmetic mean of bone apposition rate: 1.28 μm/d
Male Sprague-Dawley rats [4]; listed as SEQ ID NO:2
  Bone stimulatory effect (in words): stimulate bone growth

B2: NAP-2 (peptide)
chain: AELRCMCIKTTSGIHPKNIQSLEVIGKGTHCNQVEVIATLKDGRKICLDPDAPRIKKIVQKKLAGDESAD
modifications: OTHER INFORMATION: Description of Artificial Sequence: Chemically synthesized polypeptide
Male Sprague-Dawley rats [4]
  Bone stimulatory effect (in words): bone stimulatory effects
  Group arithmetic mean of bone apposition rate: 1.23 μm/d
Male Sprague-Dawley rats [4]; listed as SEQ ID NO:1
  Bone stimulatory effect (in words): stimulate bone growth

B3: Platelet factor 4 (protein)
chain: EAEEDGDLQCLCVKTTSQVRPRHITSLEVIKAQPHCPTAQLIATLKNGRKICLDLEAPLYKKIIKKLLES
modifications: OTHER INFORMATION: Description of Artificial Sequence: Chemically synthesized polypeptide
notes: seventy amino acid polypeptide
Saos-2
  Effect on cell proliferation (in words): inhibit proliferation
G-292
  Effect on cell proliferation (in words): inhibit proliferation
